Data as given in patent US8404670B2 (Sunovion Pharmaceuticals Inc., priority 2009, dated 2013).

Biological target: T1, human histamine H3 receptor (Homo sapiens, UniProt Q9Y5N1)
T1 construct: host or cells: cells expressing the human H3 receptor
Assay: H3 GTPγS assay (SPA method), histamine H3 in vitro assay
Type: biochemical
Conditions: GTPγ[35S] binding to membranes of cells expressing human H3; antagonist mode with R-γ-Me-Histamine at EC80 (30 nM); in one embodiment HCl salts tested; read-out: Potency (functional potency as indicated by IC50)

T1 sequence (Q9Y5N1 whole entry): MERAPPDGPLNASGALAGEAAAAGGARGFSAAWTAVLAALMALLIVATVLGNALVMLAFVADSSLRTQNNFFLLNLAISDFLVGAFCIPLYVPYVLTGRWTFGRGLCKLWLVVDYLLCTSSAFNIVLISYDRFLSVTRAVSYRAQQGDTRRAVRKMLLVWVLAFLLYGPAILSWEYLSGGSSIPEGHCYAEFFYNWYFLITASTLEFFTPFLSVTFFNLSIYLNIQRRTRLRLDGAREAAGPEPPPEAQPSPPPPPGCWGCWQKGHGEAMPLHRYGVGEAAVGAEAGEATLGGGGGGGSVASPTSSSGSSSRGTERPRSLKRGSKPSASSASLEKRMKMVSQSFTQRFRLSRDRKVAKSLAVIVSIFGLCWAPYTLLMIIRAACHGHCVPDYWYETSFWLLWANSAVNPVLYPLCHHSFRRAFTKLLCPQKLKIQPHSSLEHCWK

IC50 [nM]	Structure (SMILES)
≤ 10	Cc1ccc2nc(C)n(-c3ccc4c(c3)nc3n4CCN(C4CCC4)CC3)c2c1 [Compound 209, 3-cyclobutyl-8-(2,6-dimethyl-1H-benzo[d]imidazol-1-yl)-2,3,4,5-tetrahydro-1H-benzo[4,5]imidazo[1,2-d][1,4]diazepine]
≤ 10	CC(C)(C)c1ccc(-c2ccc3c(c2)nc2n3CCN(C3CCC3)CC2)cc1 [Compound 212, 8-(4-(tert-butyl)phenyl)-3-cyclobutyl-2,3,4,5-tetrahydro-1H-benzo[4,5]imidazo[1,2-d][1,4]diazepine]
≤ 100	Cn1ncc2ccc(-c3ccc4c(c3)nc3n4CCN(C4CCC4)CC3)cc21 [Compound 205, 3-cyclobutyl-8-(1-methyl-1H-indazol-6-yl)-2,3,4,5-tetrahydro-1H-benzo[4,5]imidazo[1,2-d][1,4]diazepine]
≤ 100	N#Cc1ccc(C(=O)N2CCc3cc4nc5n(c4cc3C2)CCN(C2CCC2)CC5)cc1 [Compound 192, 4-(9-cyclobutyl-2,3,4,7,8,9,10,11-octahydro-1H-[1,4]diazepino[1′,7′:1,2]imidazo[4,5-g]isoquinoline-2-carbonyl)benzonitrile]
≥ 1000	Brc1cnc2c(c1)nc1n2CCN(C2CCC2)CC1 [Compound 235, 7-Aza-3-cyclobutyl-9-bromo-2,3,4,5-tetrahydro-1H-[1,4]diazepino[1,7-a]benzimidazole]
≤ 100	CC(=O)N1CCc2cc3nc4n(c3cc2C1)CCN(C1CCC1)CC4 [Compound 194, 1-(9-cyclobutyl-3,4,8,9,10,11-hexahydro-1H-[1,4]diazepino[1′,7′:1,2]imidazo[4,5-g]isoquinolin-2(7H)-yl)ethanone]
≤ 10	CC(=O)N1CCN(c2ccc3c(c2)nc2n3CCN(C3CCC3)CC2)CC1 [Compound 167, 1-(4-(3-cyclobutyl-2,3,4,5-tetrahydro-1H-benzo[4,5]imidazo[1,2-d][1,4]diazepin-8-yl)piperazin-1-yl)ethanone]
≤ 100	NCCc1ccc2c(c1)nc1n2CCN(C2CCC2)CC1 [Compound 138, 2-(3-cyclobutyl-2,3,4,5-tetrahydro-1H-benzo[4,5]imidazo[1,2-d][1,4]diazepin-8-yl)ethanamine]
≤ 100	c1cc2ccc(-c3ccc4c(c3)nc3n4CCN(C4CCC4)CC3)nc2[nH]1 [Compound 196, 3-cyclobutyl-8-(1H-pyrrolo[2,3-b]pyridin-6-yl)-2,3,4,5-tetrahydro-1H-benzo[4,5]imidazo[1,2-d][1,4]diazepine]
≤ 10	O=C1CCc2cc(-c3ccc4c(c3)nc3n4CCN(C4CCC4)CC3)ccc2N1 [Compound 216, 6-(3-cyclobutyl-2,3,4,5-tetrahydro-1H-benzo[4,5]imidazo[1,2-d][1,4]diazepin-8-yl)-3,4-dihydroquinolin-2(1H)-one]
≤ 100	c1cc2cc(-c3ccc4c(c3)nc3n4CCN(C4CCC4)CC3)ccc2[nH]1 [Compound 4]
≤ 100	c1ccc(N2CCN(c3ccc4nc5n(c4c3)CCN(C3CCC3)CC5)CC2)nc1 [Compound 234, 3-cyclobutyl-9-(4-(pyridin-2-yl)piperazin-1-yl)-2,3,4,5-tetrahydro-1H-benzo[4,5]imidazo[1,2-d][1,4]diazepine]
≤ 10	c1cc2c(cc1-c1cnc3[nH]ncc3c1)nc1n2CCN(C2CCC2)CC1 [Compound 223, 3-cyclobutyl-8-(1H-pyrazolo[3,4-b]pyridin-5-yl)-2,3,4,5-tetrahydro-1H-benzo[4,5]imidazo[1,2-d][1,4]diazepine]
≤ 1000	c1cnc(-c2cnc3c(c2)nc2n3CCN(C3CCC3)CC2)cn1 [Compound 236, 7-Aza-3-cyclobutyl-9-(pyrazin-2-yl)-2,3,4,5-tetrahydro-1H-[1,4]diazepino[1,7-a]benzimidazole]
≤ 1000	c1cc2nc3n(c2cc1-c1cn[nH]c1)CCN(C1CCC1)CC3 [Compound 49, 3-cyclobutyl-9-(1H-pyrazol-4-yl)-2,3,4,5-tetrahydro-1H-[1,4]diazepino[1,7-a]benzimidazole]
≤ 10	c1ccc2c(c1)ncn2-c1ccc2c(c1)nc1n2CCN(C2CCC2)CC1 [Compound 68]

IC50 [nM]	Structure (SMILES)
≤ 10	c1c2c(cc3c1nc1n3CCN(C3CCC3)CC1)CN(CC1CC1)C2 [Compound 147, 8-cyclobutyl-2-(cyclopropylmethyl)-1,2,3,6,7,8,9,10-octahydro-[1,4]diazepino[1′,7′:1,2]imidazo[4,5-f]isoindole]
≤ 10	c1cnc(N2CCN(c3ccc4c(c3)nc3n4CCN(C4CCC4)CC3)CC2)cn1 [Compound 233, 3-cyclobutyl-8-(4-(pyrazin-2-yl)piperazin-1-yl)-2,3,4,5-tetrahydro-1H-benzo[4,5]imidazo[1,2-d][1,4]diazepine]
≤ 100	c1cnn(-c2ccc3c(c2)nc2n3CCN(C3CCC3)CC2)n1 [Compound 151, 3-cyclobutyl-8-(2H-1,2,3-triazol-2-yl)-2,3,4,5-tetrahydro-1H-benzo[4,5]imidazo[1,2-d][1,4]diazepine]
≤ 100	FC1(F)CCN(c2ccc3c(c2)nc2n3CCN(C3CCC3)CC2)C1 [Compound 182, 3-cyclobutyl-8-(3,3-difluoropyrrolidin-1-yl)-2,3,4,5-tetrahydro-1H-benzo[4,5]imidazo[1,2-d][1,4]diazepine]
≤ 1000	c1coc(-c2cnc3c(c2)nc2n3CCN(C3CCC3)CC2)c1 [Compound 238]
≤ 10	Cc1cn2cc(-c3ccc4c(c3)nc3n4CCN(C4CCC4)CC3)ccc2n1 [Compound 195, 3-cyclobutyl-8-(2-methylimidazo[1,2-a]pyridin-6-yl)-2,3,4,5-tetrahydro-1H-benzo[4,5]imidazo[1,2-d][1,4]diazepine]
≥ 1000	Clc1ccc2c(c1)nc1n2CCN(Cc2cnc[nH]2)CC1 [Compound 15]
≤ 10	c1cc2c(cc1N1CCN(CC3CC3)CC1)nc1n2CCN(C2CCC2)CC1 [Compound 104, 3-cyclobutyl-9-(4-(cyclopropylmethyl)piperazin-1-yl)-2,3,4,5-tetrahydro-1H-[1,4]diazepino[1,7-a]benzimidazole]
≤ 1000	c1cc2c(nc3n2CCN(C2CCC2)CC3)c2c1CNCC2 [Compound 184, 10-cyclobutyl-2,3,4,8,9,10,11,12-octahydro-1H-[1,4]diazepino[1′,7′:1,2]imidazo[4,5-f]isoquinoline]
≤ 100	CC(C1CCC1)N1CCc2nc3cc(-c4ccc(CN)cc4)ccc3n2CC1 (stereo not shown) [Compound 5]
≤ 100	c1cnc(-c2ccc3c(c2)nc2n3CCN(C3CCC3)CC2)nc1 [Compound 123, 3-cyclobutyl-8-(pyrimidin-2-yl)-2,3,4,5-tetrahydro-1H-benzo[4,5]imidazo[1,2-d][1,4]diazepine]
≤ 100	OC(c1ccc2c(c1)nc1n2CCN(C2CCC2)CC1)c1cnccn1 (stereo not shown) [Compound 120, (3-cyclobutyl-2,3,4,5-tetrahydro-1H-benzo[4,5]imidazo[1,2-d][1,4]diazepin-8-yl)(pyrazin-2-yl)methanol]
≤ 1000	O=C(c1ccc2nc3n(c2c1)CCN(C1CCC1)CC3)N1CCCC1 [Compound 86]
≤ 10	c1csc(N2CCN(c3ccc4c(c3)nc3n4CCN(C4CCC4)CC3)CC2)n1 [Compound 232, 2-(4-(3-cyclobutyl-2,3,4,5-tetrahydro-1H-benzo[4,5]imidazo[1,2-d][1,4]diazepin-8-yl)piperazin-1-yl)thiazole]
≤ 100	N#Cc1ccc(-c2ccc3c(c2)nc2n3CCN(CC3CC3)CC2)cc1 [Compound 39]
